These results are taken from US20050277107A1, “Systems and methods for cell preservation” (priority 2002, published 2005).

The subject of series [1] is NIH 3T3 murine fibroblasts. The series can be described thus: Post-rehydration plasma membrane integrity (SYTO 13/ethidium bromide dual fluorescent assay) of dried cells. It counts as cell-based. The note with it: for moisture content above which membrane integrity remained relatively stable: hypertonic (528 mOsm/kg) 0.2 M trehalose. The procedure:
(§1) NIH 3T3 murine fibroblasts were cultured in Dulbecco's Modified Eagle's medium (DMEM) supplemented with 10% v/v bovine calf serum and 1% v/v penicillin-streptomycin at 37° C. with 10% CO2 in air. At 70% confluence, the cells were trypsinized and resuspended in culture medium. 20 microliter droplets of cells were plated onto sterile 12 mm circular glass cover slips and cultured for 30 min at 37° C. to allow for loose attachment of the fibroblasts to the cover slip. In some cases, poly-L-lysine-coated cover slips were used for attaching the cells to the cover slips. The cover slips were precoated with poly-L-lysine to assure uniform surface characteristics as follows. The cover slips were first prepared by soaking them in aqua regia overnight. The next day, the cover slips were rinsed in 50 mM NaHCO3, then in de-ionized H2O. The cover slips were then baked for at least 3 h at 150° C. The cover slips were removed from the oven and floated in a 1 mg/ml solution of poly-L-lysine for 5 min on each side, then rinsed in de-ionized H2O and air-dried.
(§2) Trehalose was inserted into the fibroblasts as follows. The fibroblasts were washed with 30 microliters of a HEPES-buffered saline solution supplemented with EDTA, followed by three washes with 30 microliters of RPMI-1640. The cells were then porated by exposure to an RPMI-1640 solution containing 25 micrograms/ml of a pore-forming protein, H5 alpha-hemolysin, for 10 min. Intracellular trehalose was inserted into the porated cells by exposure to either a hypertonic (RPMI-1640+0.2 M trehalose; 528 mOsm/kg) or an isotonic (RPMI-1640 diluted in H2O+0.2 M trehalose; 310 mOsm/kg) trehalose solution for 45 min. The pores created by H5 alpha-hemolysin in the fibroblasts were closed by adding 25 micromolar ZnSO4 to the solution. The fibroblasts were then washed in an (H5-free) hypertonic or an isotonic trehalose solution. The osmolality of the solution was measured using a freezing-point depression osmometer. All experimental manipulations were performed at room temperature, unless otherwise indicated.
Techniques used in these experiments for drying cells included evaporative drying (using natural convection) or forced laminar convective flow. The natural convection protocol is generally as follows. The approximate pre-desiccation dimensions of the 20 microliter droplet of media containing the fibroblasts on the glass cover slip was 6 mm diameter×1 mm height. The cover slips were placed in airtight acrylic boxes containing CaSO4/CoCl2 desiccant. The cover slips were stored there for different lengths of time, typically ranging from a few hours to several weeks. […] The moisture content of each droplet was determined gravimetrically from the difference in the droplet weight before and after drying, and was expressed as a percentage of anhydrous dry weight. Anhydrous dry weights were determined by baking a representative droplet overnight at 110° C. and measuring the droplet weights. […] The cells within the droplet were then cultured overnight (˜18 h) and assessed for viability.
The integrity of the plasma membrane of the cells after rehydration was determined using a dual fluorescent assay as follows. […] The cells were imaged on a fluorescent microscope and analyzed. The membrane integrity (MI) for the cells was calculated as the percentage of SYTO® 13-positive cells in the sample. […]

Series [2] relates to NIH 3T3 murine fibroblasts. The experiment in a line: Post-rehydration cell growth (percentage of viable cells versus undried controls after overnight culture). It counts as cell-based. The procedure: as §1
as §2, with “All experimental manipulations were performed at room temperature, unless otherwise indicated.” left out
Techniques used in these experiments for drying cells included evaporative drying (using natural convection) or forced laminar convective flow. […] The moisture content of each droplet was determined gravimetrically from the difference in the droplet weight before and after drying, and was expressed as a percentage of anhydrous dry weight. Anhydrous dry weights were determined by baking a representative droplet overnight at 110° C. and measuring the droplet weights. […] The cells within the droplet were then cultured overnight (˜18 h) and assessed for viability.
Following overnight culture, the percentage of viable cells in droplets that were dried and then recovered, compared to undried controls, was used as a measure of cell growth. Viable fibroblasts could be readily identified through their flattening, migratory, and mitotic behavior. […]

Another series deals with 3T3 fibroblasts. The series can be described thus: Long-term stability of membrane integrity during dried storage (exponential decay curve fit). It counts as cell-based, murine. The note with it: 0.4 M intracellular trehalose. The procedure:
The integrity of the plasma membrane of the cells after rehydration was determined using a dual fluorescent assay as follows. SYTO® 13 (Molecular Probes, Inc. Eugene, Oreg.), a permeant live cell nucleic acid dye (25 micromolar), and ethidium bromide (EB; 25 micromolar) were used to differentially stain the cells. The cells were imaged on a fluorescent microscope and analyzed. The membrane integrity (MI) for the cells was calculated as the percentage of SYTO® 13-positive cells in the sample.
The membrane integrity of 3T3 fibroblasts loaded with 0.4 M trehalose intracellularly was measured for periods of time extending out to several weeks (FIG. 5). The fibroblasts were prepared using methods similar to those described in Example 1. The data in FIG. 5 represents experiments where cells were removed from storage, rehydrated, analyzed, and then discarded. The cells were stored at temperatures of −80° C., −20° C., 4° C., 25° C., and 37° C., over CaSO4 desiccant (about 5% relative humidity). The 0.4 M trehalose condition was chosen in this example since previous experiments had shown that cells containing 0.4 M trehalose had high MI values after overnight storage.
Thus, the rate at which the membrane integrity decays appears to be a function of the storage temperature.

Series [3] can be described thus: Glass transition temperature of extracellular trehalose solution (modulated temperature DSC). It counts as physicochemical. The note with it: after 18 h of dried storage at 4° C. The protocol:
Thus, the extracellular trehalose solution had vitrified by 18 h. After vitrification (glass formation) of the solution containing the cells had occurred, the cells were able to retain their plasma membrane integrities, even after days to weeks in storage at relatively cooler storage temperatures.

Series [4] has as its system human fibroblast cells (HFF1 cells). The series can be described thus: Cell viability after vacuum desiccation and rehydration on cell adhesion surfaces. It counts as cell-based. The note with it: dried on standard tissue culture surfaces to about 20% moisture, post-rehydration on coated surface (Tissue Dried). The protocol: In this set of experiments, human fibroblast cells (HFF1 cells) were desiccated under vacuum at room temperature on various surfaces, and in some cases, in the presence of 0.2 M extracellular trehalose. The fibroblasts were dried to about 20% moisture content. The fibroblasts were then recovered by rehydrating them, placing them into culture, and assessing their viability about 24 hours later, using techniques similar to those described in Example 1.

For `OC[C@H]1O[C@H](O[C@H]2O[C@H](CO)[C@@H](O)[C@H](O)[C@H]2O)[C@H](O)[C@@H](O)[C@@H]1O` [trehalose], the “moisture content above which membrane integrity remained relatively stable” value in series [1] (extracellular trehalose only) is “greater than 15%”; in series [1] (intracellular and extracellular trehalose), “greater than 10%”. In addition, in series [1] (hypertonic solution), the “membrane integrity (MI) after drying, internal plus external trehalose versus no internal trehalose” value was “higher MI values”. For the same molecule, in series [1] (isotonic (310 mOsm/kg) solutions of 0.2 M trehalose), the “moisture content below which gross membrane damage was observed” value is 5-8%. The “intact cells (membrane integrity)” value in series [1] (isotonic trehalose solutions, moisture contents as low as 5-8%) was “about 80%”. For the same molecule, in series [2] (dried to about 10% moisture content, p=0.004), the “percentage of cell growth, isotonic intracellular and extracellular trehalose versus isotonic extracellular trehalose only” value was “significant improvement”. The “cells viable (cell growth) following drying” value in series [2] (hypertonic trehalose solutions, dried to about 10% moisture content) is “Less than 20%”. The “percentage of cell growth” value in series [2] (isotonic 0.2 M extracellular trehalose only, dried to 10% moisture content) is “less than 30%”. The “cells capable of growth after recovery and overnight culture” value in series [2] (isotonic 0.2 M intracellular and extracellular trehalose, moisture contents greater than about 10%) is given as “Approximately 80%”. For the same molecule, the “decay time constant of membrane integrity” value with 3T3 fibroblasts (storage at 4° C. over CaSO4 desiccant) is reported as 54 days; with 3T3 fibroblasts (storage at 25° C. over CaSO4 desiccant) it was 7.5 days; with 3T3 fibroblasts (storage at 37° C. over CaSO4 desiccant), 2.0 days; in the series on 3T3 fibroblasts (storage at -20° C. over CaSO4 desiccant) it was 138 days; with 3T3 fibroblasts (storage at -80° C. over CaSO4 desiccant) it was 147 days. For the same molecule, the “glass transition temperature of the extracellular trehalose” value in series [3] was in the range of 5 to 10 °C.
As for collagen, the “cell viability about 24 hours after rehydration” value in series [4] is “Increases in cell viability”.
The same measure, in the same setting: next, fibronectin: “Increases in cell viability”.
The same measure, in the same setting: the value for laminin was “Increases in cell viability”.
